Reference: publication PMC10947579, “Structure‐Based Demystification of Radical Catalysis by a Coenzyme B12 Dependent Enzyme—Crystallographic Study of Glutamate Mutase with Cofactor Homologues” (Angewandte Chemie (Weinheim an Der Bergstrasse, Germany), 2022)

Target: T1, glutamate mutase (GM) (Clostridium cochlearium, UniProt P80077+P80078)
T1 construct: gene glmE; hetero-tetramer (two epsilon, two sigma subunits), reconstituted with cobalamin
T1 sequence (P80077 1-483): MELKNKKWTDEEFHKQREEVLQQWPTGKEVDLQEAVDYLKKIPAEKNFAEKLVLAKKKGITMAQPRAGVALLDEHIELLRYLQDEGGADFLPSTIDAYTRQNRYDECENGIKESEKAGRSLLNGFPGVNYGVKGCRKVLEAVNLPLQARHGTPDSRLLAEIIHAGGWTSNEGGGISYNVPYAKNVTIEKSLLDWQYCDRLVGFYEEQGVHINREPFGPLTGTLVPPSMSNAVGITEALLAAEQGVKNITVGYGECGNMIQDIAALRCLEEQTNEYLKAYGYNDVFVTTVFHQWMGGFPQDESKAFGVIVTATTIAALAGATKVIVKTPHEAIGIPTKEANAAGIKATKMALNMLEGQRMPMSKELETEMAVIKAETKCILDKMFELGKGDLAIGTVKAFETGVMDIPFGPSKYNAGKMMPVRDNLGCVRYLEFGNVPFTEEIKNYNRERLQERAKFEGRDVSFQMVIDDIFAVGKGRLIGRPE
T1 sequence (P80078 1-137): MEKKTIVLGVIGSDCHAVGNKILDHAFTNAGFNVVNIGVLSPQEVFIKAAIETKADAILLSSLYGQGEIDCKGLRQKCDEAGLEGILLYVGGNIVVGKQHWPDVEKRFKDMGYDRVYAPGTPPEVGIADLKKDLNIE
Experiment: X-ray crystal structure, […] Å
Type: binding
Settings: with AdoMeCbl (also bound in the AdoEtCbl complex 6H9F); pseudo-substrate in substrate site of epsilon subunit (arginine claw)

Structure (SMILES): O=C(O)[C@@H](O)[C@H](O)C(=O)O [(S,S)‐tartrate]
- X-ray crystal structure, 1.8 Å: strong polar binding interactions with the carboxylate groups of an (S,S)‐tartrate ion
